Measured values: US20240342168A1, “SMALL MOLECULE INHIBITORS FOR ANTI-CANCER COMBINATION THERAPY” (UNIVERSITY OF CAPE TOWN, priority 2021, published 2024)
pIC50: −log10 of the molar value.

What was measured:
p53 = settings: CRM1 inhibition, other cancers, literature; cited from earlier work
C33A = experiment: MTT cell viability / cisplatin IC50 determination; format: cell-based; settings: 48-h treatment, no INI-43 pre-treatment
Protocol: (§1) HeLa, SiHa, CaSki and C33A cell lines were purchased from the American Type Culture Collection (ATCC) and maintained in Dulbecco's Modified Eagle's Medium (DMEM, Gibco, Life Technologies) containing 10% Fetal Bovine Serum (Gibco, Life Technologies), supplemented with 100 U/mL penicillin and 100 μg/mL streptomycin. Cells were cultured at 37° C. in a humidified chamber with 5% CO2. All cell lines were authenticated by DNA profiling using the Cell ID System (Promega, Madison, WI, USA).
(§2) Cells were plated in 96-well plates and subjected to single or CT (2 h INI-43 pre-treatment followed by cisplatin treatment, without removing IN1-43 from the media) for 48 h. Following treatment, MTT (Sigma) was added and 4 h later crystals solubilized using 10% SLS in 0.01 M HCl. Absorbencies were measured at 595 nm and IC50 values determined via plotting [Fa/(1-Fa)] in log scale against log cisplatin concentration, where:
(§3) The half inhibitory concentration was calculated using the formula IC50=10^x-intercept

CaSki = experiment: MTT cell viability / cisplatin IC50 determination; format: cell-based; settings: 48-h treatment, no INI-43 pre-treatment
Protocol: as §1, §2, §3

HeLa = experiment: MTT cell viability / cisplatin IC50 determination; format: cell-based
Protocol: as §1, §2, §3

SiHa = experiment: MTT cell viability / cisplatin IC50 determination; format: cell-based
Protocol: as §1, §2, §3

[1] = test system: p53 reporter activity in SiHa cells; experiment: p53-luciferase reporter assay; format: cell-based; settings: single cisplatin treatment
Protocol: (§4) SiHa cells were transfected with 100 ng p65-luciferase reporter construct (containing five copies of the p65-binding site, Promega) or 200 ng p53-luciferase reporter construct (containing thirteen wildtype p53 binding sites, Addgene plasmid #16442, Addgene Plasmid Repository (el-Deiry W S, Tokino T, Velculescu V E, Levy D B, Parsons R, Trent J M, et al. WAF1, a potential mediator of p53 tumor suppression. Cell. 1993; 75(4):817-25) and 10 ng pRL-TK (encoding Renilla luciferase, Promega), using Genecellin transfection reagent (Celtic Molecular Diagnostics). The following day cells were treated with 5 μM INI-43 for 2 h, followed by 30 μM cisplatin for 24 h, and luciferase activity assayed using the Dual-Luciferase Report assay system (Promega), according to the manufacturer's instructions. Luciferase readings were measured using the Veritas™ microplate luminometer (Promega) and normalised to Renilla luciferase from the same extract.

[2] = test system: p65 reporter activity in SiHa cells; experiment: p65-luciferase reporter assay; format: cell-based; settings: 30 μM single cisplatin treatment
Protocol: as §4

[3] = test system: NFκB-p50 and NFκB-p65 in SiHa cells; experiment: Immunofluorescence of NFκB nuclear localization; format: cell-based
Protocol: SiHa cells were plated on glass coverslips and treated for 24 h before fixation with 4% paraformaldehyde. Cells were permeabilised using 0.5% Triton-X-100/PBS and blocked using 1% BSA/PBST with 0.3 M Glycine. Primary antibody incubations were performed in 1% BSA/PBST, followed by secondary antibody incubation (Cy3 conjugated goat anti-rabbit, Jackson ImmunoResearch). Cell nuclei were counterstained with 0.5 μg/mL DAPI, and images captured using the Zeiss inverted fluorescence microscope under 100× oil immersion.

[4] = test system: NFκB-p50 and NFκB-p65 in SiHa cells; experiment: Nuclear/cytoplasmic fractionation and Western blot; format: cell-based; settings: cisplatin treatment
Protocol: For protein extraction, cells were washed with PBS and lysed using RIPA buffer (50 mM Tris-CI, pH 7.4, 150 mM NaCl, 1% (w/v) sodium deoxycholate, 0.1% (v/v) SDS, 1% (v/v) Triton X-100, 2 mM EGTA, 2 mM EDTA, 50 mM NaF, 5 mM Na2P2O7, 1× complete protease inhibitor cocktail (Roche) and 0.1 M Sodium Orthovanadate). For PARP cleavage analysis, dead cells were collected by centrifugation and combined with live cell lysates. Lysates were sonicated, centrifuged, and the supernatant quantified using the BCA Protein Assay Kit (Pierce, Thermo Scientific) according to the manufacturer's instructions. […]
For nuclear/cytoplasmic protein extraction, cells were collected by trypsinization. […] The fractions were quantified using the BCA Protein Assay Kit (Pierce, Thermo Scientific) according to the manufacturer's instructions, followed by western blot analysis.

[5] = test system: p53, p21 and Mcl-1 in SiHa cells; experiment: Western blot of p53 and p53 targets; format: cell-based
Protocol: (§5) For protein extraction, cells were washed with PBS and lysed using RIPA buffer (50 mM Tris-CI, pH 7.4, 150 mM NaCl, 1% (w/v) sodium deoxycholate, 0.1% (v/v) SDS, 1% (v/v) Triton X-100, 2 mM EGTA, 2 mM EDTA, 50 mM NaF, 5 mM Na2P2O7, 1× complete protease inhibitor cocktail (Roche) and 0.1 M Sodium Orthovanadate). For PARP cleavage analysis, dead cells were collected by centrifugation and combined with live cell lysates. Lysates were sonicated, centrifuged, and the supernatant quantified using the BCA Protein Assay Kit (Pierce, Thermo Scientific) according to the manufacturer's instructions. Proteins were subjected to Western blot analysis using the following antibodies: rabbit anti-Kpnβ1 (H-300, sc-11,367, Santa Cruz), rabbit anti-β-tubulin (H-235, sc-9104, Santa Cruz), rabbit anti-PARP1/2 antibody (H-250, sc-7150, Santa Cruz), mouse anti-GAPDH (0411, sc-47,724, Santa Cruz), rabbit anti-p21 (H-164, sc-756, Santa Cruz), rabbit anti-Mcl-1 (H-260, sc-20,679, Santa Cruz), mouse anti-cyclin D1 (HD11, sc-246, Santa Cruz), rabbit anti-c-Myc (N-262, sc-764, Santa Cruz), mouse anti-p53 (DO-7, M7001, DakoCytomation), mouse anti-XIAP (610,763, BD Biosciences), and rabbit anti-phospho-Histone H2AX (γH2AX, Ser139, 20E3, #9718, Cell Signal).

[6] = test system: cyclin D1, c-Myc and XIAP; experiment: Western blot of NFκB targets; format: cell-based; settings: single cisplatin treatment
Protocol: as §5

[7] = 48-h treatment, no INI-43 pre-treatment
[8] = Kpnβ1 knock-down (si-Kpnβ1) cells
[9] = control siRNA (si-ctrl) transfected cells
[10] = single cisplatin treatment at 30 μM and 60 μM

Structure (SMILES) | effect on p53 stability (p53) | pIC50 (C33A) | pIC50 (CaSki) | pIC50 (HeLa; [7]) | pIC50 (HeLa; [8]) | pIC50 (HeLa; [9]) | pIC50 (SiHa; [7]) | pIC50 (SiHa; [8]) | pIC50 (SiHa; [9]) | p53 reporter activity [1] | p65 reporter activity [2] | nuclear fluorescence relative to cytoplasmic fluorescence (Fc (Nu/Cy)) ([3]; single cisplatin treatment) | nuclear localization of NFκB-p50 and NFκB-p65 ([3]; single cisplatin treatment (30 μM), 24 h) | levels of NFκB-p50 and NFκB-p65 in the nucleus [4] | p53 protein levels ([5]; SiHa, single cisplatin treatment) | Mcl-1 levels [5, 10] | p21 levels [5, 10] | levels of cyclin D1 and c-Myc [6]
COc1cc(-c2ncn(/C=C\C(=O)OC(C)C)n2)cc(C(F)(F)F)c1 [KPT-185] | stabilize p53 |  |  |  |  |  |  |  |  |  |  |  |  |  |  |  |  | 
N.N.[Cl][Pt][Cl] [cisplatin, reference compound] |  | 4.89 | 4.74 | 4.74 | 5.01 | 4.61 | 4.51 | 4.71 | 4.52 | significantly reduced | induced | significant increase | stimulated nuclear localization | increased levels | increased | decreased | decreased | elevated levels
CCC(=C/[C@H](C)C/C=C/C(C)=C/[C@@H](C)C(=O)[C@@H](C)[C@H](O)[C@@H](C)C/C(C)=C/C(=O)O)/C=C/[C@@H]1OC(=O)C=C[C@@H]1C [leptomycin B] | stabilize p53 |  |  |  |  |  |  |  |  |  |  |  |  |  |  |  |  | 
